Laboratory results reported in patent US10690683B2, “Methods of use for intermediate filament protein probes” (University of Connecticut, priority 2016, dated 2020).

Columns and labels:
[1] = test system: BHK-21 cells (mitochondrial movements); assay: Nocodazole treatment, time-lapse live imaging of BHK-21 cells with MitoTracker dye and WFA-Verde; format: cell-based, hamster; settings: 10 μM Nocodazole
Experimental: BHK-21 cells were cultured in glass bottom plates and treated with MitoTracker® dye alone or separately with 10 μM Nocodazole. […] Time-lapse images were collected every 5 seconds in each of the four treatment groups.

vimentin and GFAP = settings: laser injured mice, day 7, 1 μM intraperitoneal, sacrificed 24 h later
Source text: Mice of both sexes were anesthetized and subjected to 4 equally spaced laser burns focused on the retinal pigment epithelium (RPE). Using the Meridian laser attached to Micron III retinal fundus microscope (Phoenix Research labs) we used strong injury (150 mW with 50 msec pulse) to promote retinal gliosis with CNV.
The mouse imaging system (Micron III, Phoenix Research Labs, CA) provided with an image-guided Meridian Merilas 532 nm (Nd:YVO) laser was employed. Using the Diode laser 625-645 nm as an aiming beam the continuous wave, KTP frequency doubled Nd:YVO 532 nm laser was employed to deliver laser injuries in anesthetized mice. Here four (150 mW; 10-μm diameter, 50 msec duration) laser shots equally spaced around the optic nerve were delivered to disrupt the RPE. […] Mice were sacrificed 24 h later and eyes enucleated for tissue sectioning and antibody staining to vimentin and GFAP.

[2] = test system: mCherry-vimentin (soluble vimentin); assay: Live cell target detection in BHK-21 cells transfected with pmCherry-vimentin-N-18; format: cell-based, hamster; settings: 250 nM, 5 min, early spreading cells
Chain of mCherry-vimentin (soluble vimentin) (P08670 2-466 limits assumed): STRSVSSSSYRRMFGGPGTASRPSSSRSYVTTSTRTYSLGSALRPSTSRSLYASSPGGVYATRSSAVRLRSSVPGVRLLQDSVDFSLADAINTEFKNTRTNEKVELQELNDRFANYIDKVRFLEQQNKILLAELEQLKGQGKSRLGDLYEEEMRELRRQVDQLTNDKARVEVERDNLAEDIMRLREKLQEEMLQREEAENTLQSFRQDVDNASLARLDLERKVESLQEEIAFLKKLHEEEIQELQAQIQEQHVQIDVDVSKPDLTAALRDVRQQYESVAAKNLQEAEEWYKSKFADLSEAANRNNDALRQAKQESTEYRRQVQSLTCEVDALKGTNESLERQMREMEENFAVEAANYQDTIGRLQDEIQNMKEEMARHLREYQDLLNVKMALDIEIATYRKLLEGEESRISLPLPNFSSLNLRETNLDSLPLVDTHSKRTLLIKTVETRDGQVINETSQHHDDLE
Source text: Soluble vimentin is a broad definition for the biochemical properties of vimentin forms that are extracted in low salt buffers (composed of tetramers, short oligomers, unit length filaments etc.). As such, these soluble vimentin forms are more dynamic structures. We employed a genetic approach to introduce a hybrid mCherry-vimentin construct to express vimentin as a fusion protein with the red fluorescent protein mCherry.
BHK-21 cells were transiently transfected with pmCherry-vimentin-N-18 plasmid (Adgene, MA) using lipofectamine, according to vendor instructions. Cells were trypsinized and replated in glass bottom culture plates (MatTek, MA) for 1 h in complete DMEM medium. […] Cells were immediately imaged live by epifluorescence microscopy, without fixation. […] Asterisks mark the position of the nucleus.

soluble vimentin = target: T1, soluble vimentin (Mesocricetus auratus, UniProt P02544); assay: Dynamic movement of vimentin structures, live imaging of BHK-21 cells; format: cell-based, hamster; settings: 250 nM, 5 min, SF medium, images at 5 sec intervals
T1 construct: BHK-21 cells were plated in glass bottom culture plates for 18 h to promote spreading; endogenous in cells; host or cells: BHK-21
T1 sequence (P02544 2-465 limits assumed): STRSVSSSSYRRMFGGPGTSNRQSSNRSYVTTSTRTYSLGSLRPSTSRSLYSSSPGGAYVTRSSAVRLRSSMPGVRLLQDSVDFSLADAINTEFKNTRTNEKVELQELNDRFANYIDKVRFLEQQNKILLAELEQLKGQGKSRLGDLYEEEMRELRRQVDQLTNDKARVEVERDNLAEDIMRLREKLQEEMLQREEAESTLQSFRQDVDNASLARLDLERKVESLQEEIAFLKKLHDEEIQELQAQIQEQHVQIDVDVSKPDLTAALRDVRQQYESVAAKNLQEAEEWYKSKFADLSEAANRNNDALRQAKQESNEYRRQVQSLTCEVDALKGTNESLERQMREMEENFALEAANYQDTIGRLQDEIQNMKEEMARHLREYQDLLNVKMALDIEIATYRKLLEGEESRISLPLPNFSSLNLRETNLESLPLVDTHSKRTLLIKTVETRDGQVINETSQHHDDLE

[3] = target: T2, soluble vimentin species bound to motile mitochondrial species (Mesocricetus auratus, UniProt P02544); assay: Motility quantification of WFA-Verde-labeled particles in BHK-21 cells (FIJI/Image J); format: cell-based, hamster; settings: 250 nM, images at 5 sec intervals
T2 construct: BHK-21 cells were plated in glass bottom culture plates for 18 h to promote spreading; endogenous in cells; host or cells: BHK-21
T2 sequence (P02544 2-465 limits assumed): as above

[4] = target: T3, vimentin (Muller glial filaments) (Mus musculus, UniProt P20152); assay: In vivo delivery of probe to non injured mice, retina cryosections; settings: 1 μM intraperitoneal, eyes enucleated after 24 h, FITC channel
T3 construct: from tissue; host or cells: mouse retina (in vivo, cryosections)
T3 sequence (P20152 2-466 limits assumed): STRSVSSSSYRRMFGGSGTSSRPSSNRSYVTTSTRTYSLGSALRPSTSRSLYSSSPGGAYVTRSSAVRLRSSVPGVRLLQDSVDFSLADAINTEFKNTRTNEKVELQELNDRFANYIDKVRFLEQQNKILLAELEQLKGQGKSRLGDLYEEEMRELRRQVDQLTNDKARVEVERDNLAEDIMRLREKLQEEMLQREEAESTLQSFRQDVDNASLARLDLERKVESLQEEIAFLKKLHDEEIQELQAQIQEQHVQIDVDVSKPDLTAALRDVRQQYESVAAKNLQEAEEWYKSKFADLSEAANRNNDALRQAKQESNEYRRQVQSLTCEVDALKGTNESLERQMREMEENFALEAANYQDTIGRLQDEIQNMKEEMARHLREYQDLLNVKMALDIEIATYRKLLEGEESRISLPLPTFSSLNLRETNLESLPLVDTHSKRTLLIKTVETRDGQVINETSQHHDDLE
Source text: Cryosections of the eye were subjected to fixation and subsequently stained with anti-vimentin antibody (V9) to mark Muller glial filaments.

[5] = test system: human vimentin-cherry hybrid; assay: Time-lapse imaging of BHK-21 cells expressing polymerized mCherry-vimentin; format: cell-based, hamster; settings: 250 nM, 5 minutes, serum-free medium, BHK-21 cells with mCherry-vimentin, replated 18 h
Chain of human vimentin-cherry hybrid (P08670 2-466 limits assumed): as the sequence (P08670 2-466 limits assumed) above
Experimental: Transfection of human vimentin-cherry hybrid plasmid into fibroblasts and examination of polymerized vimentin structures under live cell imaging experiments identify numerous vimentin filaments that show some common, and yet, other distinct staining from the WFA-Verde-labeled structures. BHK-21 cells were transiently transfected with pmCherry-Vimentin-N-18 plasmid (Adgene, MA) using lipofectamine. Cells were cultured to establish the expression of plasmid and then trypsinzed and replated in glass culture plates for 18 h. […] Images at the starting point (T1), mid-point (T2) and at end of 3 minutes (T3).

[6] = target: vimentin in corneal myofibroblasts (Mus musculus, UniProt P20152)
Chain of vimentin in corneal myofibroblasts (P20152 2-466 limits assumed): as the sequence (P20152 2-466 limits assumed) above
Experimental: Alkali injury to the cornea causes blindness due to the development of corneal fibrosis from overexpression of IF proteins in resident myofibroblasts. This model is extensively employed to investigate corneal fibrosis and role of IF proteins.
Thus, anesthetized mice were injured with alkali by application of 0.15N NaOH for 1 min to the cornea, eyes was extensively and the corneal epithelium gently removed. During the process of wound healing the resident keratocytes become activated into wound fibroblasts and subsequently into myofibroblasts to overexpress both vimentin and desmin, the two type III IFs in the cornea. Thus, heightened expression of these IF targets compared to uninjured corneas, the latter expressing very low levels of vimentin and no desmin, provided the rationale to compare uninjured mice. […] Mice were sacrificed after 1 h, eyes enucleated and cryosections were obtained.

[7] = target: T4, vimentin associated with mitochondria (Mesocricetus auratus, UniProt P02544); assay: Co-staining with MitoTracker dye in live BHK-21 cells; format: cell-based, hamster; settings: 250 nM, 5 mins, serum-free medium
T4 construct: endogenous in cells; host or cells: BHK-21
T4 sequence (P02544 2-465 limits assumed): as the sequence (P02544 2-465 limits assumed) above
Experimental: BHK-21 cells were plated overnight and prior to staining placed in serum-free medium. […] Cells were washed and directly imaged live at dual wavelengths.

[8] = test system: vimentin (p-Ser38Vimentin)
Source text: Cells were fixed, permeabilized, and prepared for immunohystochemistry (IHC) analysis.

Molecule: COC(=O)Nc1nc2ccc(C(=O)c3cccs3)cc2[nH]1 [Nocodazole, nocodazole, reference compound]
- effect on movement of filaments ([1]; time-lapse every 5 seconds): causes filaments to be arrested in movements

Molecule: CC1=C(COC(=O)CNC(=O)CCCCCNC(=O)COc2ccc(C3=[N+]4C(=Cc5ccc(-c6cccs6)n5[B-]4(F)F)C=C3)cc2)C(=O)OC(C(C)C2CCC3C4CC5OC56C(O)C=CC(=O)C6(C)C4CCC23C)C1 (stereo not drawn) [WFA-Rosa, Withaferin A-BODIPY-TR-X]
- labeling of Muller glia at laser lesion (vimentin and GFAP): showed a similar pattern illuminating Muller glia

Molecule: Withaferin A-BODIPY-FL [WFA-Verde]
- co-localization with Vim-Cherry [2]: shows co-localization with Vim-Cherry
- speed of WFA-Verde labeled dot-like structure (soluble vimentin): ~0.5 μm/sec
- rate of movement of majority of motile WFA-Verde-labeled particles [3]: ~0.01 micrometer/second
- overlap of WFA-Verde and MitoTracker staining under nocodazole [1]: extensive overlap
- incorporation of probe into vimentin in non-gliotic retina [4]: minimal incorporation
- staining of vimentin structures at low dose [5]: does not stain to all vimentin structures
- overlap between vimentin antibody staining and probe binding ([6]; alkali injured corneas, majority of labeled cells): extensive overlap
- probe staining of corneas from injured eyes ([6]; alkali injured mice, day 14, intraperitoneal, sacrificed after 1 h): abundance of WFA-Verde binding to corneal myofibroblasts
- metabolic conversion in vivo ([6]; mouse, in vivo, ip): likely also not metabolically converted
- time to reach the target organ after systemic delivery ([6]; mouse, in vivo, ip): ≤ 1 h
- probe staining of non-injured corneas ([6]; non-injured mice, intraperitoneal, sacrificed after 1 h, corneal stroma): very low level of background staining
- overlap of probe-stained vimentin structures with MitoTracker dye [7]: extensive overlap
- labeling of vimentin structures in cell cytoplasm ([8]; 3.5 μM, 1 h, rabbit corneal fibroblast cells): does label both soluble and vimentin structures throughout the cell cytoplasm
- co-localization of probe with p-Ser38Vimentin ([8]; 3.5 μM, 1 h, rabbit corneal fibroblast cells, fixed, anti-pSer38Vimentin antibody): extensive co-localization
- effect on cytoskeleton ([8]; short exposure to higher dose (3.5 μM, 1 h), well spread cells): did not dramatically alter the cytoskeleton
- labeling of Muller glia at laser lesion (vimentin and GFAP): labeled the Muller glia extensively
